≈ marks a conversion by molar mass, not a printed value. Where “and” joins values, the source holds several entries; their conditions need not be identical. Identical values can stand only once.
What was measured:
[1] = Stability in human intestinal juice (HIJ); settings: pooled human intestinal juice (4 subjects), buffered, pH 7.4
[2] = system: porcine pancrelipase (PPE); test: Stability in the presence of porcine pancrelipase (PPE); assay type: in vitro ADME
[3] = as above; assay type: in vitro ADME; settings: pig, porcine pancrelipase (ku-zyme HP) in phosphate buffer, 50 μM substrate, pH 7.4, 37° C.
[4] = Liver S9 conversion efficiency; assay type: in vitro ADME, human; settings: liver S9 experiments
[5] = system: K. pneumoniae 6485; test: Murine acute systemic infection model; settings: Murine acute systemic infection vs. K. pneumoniae 6485; oral BID; survival day four post-infection; repeat experiments
[6] = Equilibrium solubility; assay type: physicochemical; settings: aqueous buffer, thermodynamic from solid, 25 mM phosphate buffer (pH 5), ambient temperature / 25° C.
Experimental: Vials containing excess prodrug in phosphate buffer were rotated for up to 48 hours. After the equilibrium period, samples were pulled, filtered through 0.45 μm Gelman Acrodisc Nylon syringe filter and analyzed for drug concentration using HPLC. The HPLC conditions were: Column. C18, SymmetryShield RP, Waters, 4.6×150 mm, 3.5 micron; Mobile phase A: Acetonitrile; Mobile phase B: 0.1% TFA in water; Flow rate, 1 mL/min; Run Time: 30 min Inj. vol. 20 μL; Detection: 210 nm; Dissolving solvent: Acetonitrile/water (50:50 v:v).

[7] = system: S. pneumoniae 1095; test: Murine respiratory tract infection model; settings: Murine respiratory tract infection vs. S. pneumoniae 1095; oral BID for two days from 18 h post-infection; survival day ten; repeat experiments
[8] = system: S. pneumoniae 1095; test: Murine acute systemic infection model; settings: Murine acute systemic infection vs. S. pneumoniae 1095; oral BID; survival day four post-infection; repeat experiments
[9] = system: H. influenzae BLNAR; test: Gerbil otitis media model; settings: Gerbil otitis media vs. H. influenzae BLNAR, oral TID for two days from 18 h post-infection, bacterial levels in middle ear fluid day four, repeat experiments
[10] = system: Streptococcus pneumoniae penicillin-resistant; test: MIC90 in vitro activity of sulopenem; assay type: cell-based
[11] = system: Enterobacter cloacae; test: MIC90 in vitro activity of sulopenem; assay type: cell-based
[12] = system: Moraxella catarrhelis β-lactamase+; test: MIC90 in vitro activity of sulopenem; assay type: cell-based
[13] = system: Streptococcus bovis (Group D); test: MIC90 in vitro activity of sulopenem; assay type: cell-based; settings: Streptococcus equinus
[14] = system: Escherichia coli; test: MIC90 in vitro activity of sulopenem; assay type: cell-based
[15] = system: Streptococcus pneumoniae levofloxacin-resistant; test: MIC90 in vitro activity of sulopenem; assay type: cell-based
[16] = system: Proteus mirabilis; test: MIC90 in vitro activity of sulopenem; assay type: cell-based
[17] = system: Streptococcus pneumoniae penicillin-intermediate; test: MIC90 in vitro activity of sulopenem; assay type: cell-based
[18] = system: Moraxella catarrhalis β-lactamase−; test: MIC90 in vitro activity of sulopenem; assay type: cell-based
[19] = system: Alloiococcus otitidis; test: MIC90 in vitro activity of sulopenem; assay type: cell-based; settings: Alloiococcus otitis
[20] = in vivo, po; cited from earlier work
[21] = system: Becteroides fragilis; test: MIC90 in vitro activity of sulopenem; assay type: cell-based
[22] = system: Clostridium perfringens; test: microbe, parasite or virus in culture; assay type: cell-based
[23] = system: Streptococcus pyogenes (Group A); test: MIC90 in vitro activity of sulopenem; assay type: cell-based
[24] = system: Streptococcus pneumoniae penicillin-susceptible; test: MIC90 in vitro activity of sulopenem; assay type: cell-based
[25] = system: Citrobacter freundii; test: MIC90 in vitro activity of sulopenem; assay type: cell-based
[26] = system: Enterobacter aerogenes; test: MIC90 in vitro activity of sulopenem; assay type: cell-based; settings: Klebsiella aerogenes
[27] = system: Viridans Streptococcus group; test: MIC90 in vitro activity of sulopenem; assay type: cell-based
[28] = system: Staphylococcus saprophyticus; test: MIC90 in vitro activity of sulopenem; assay type: cell-based
[29] = system: Corynebacterium spp (not C. jeikeium); test: MIC90 in vitro activity of sulopenem; assay type: cell-based
[30] = system: Klebsiella pneumoniae ESBL+; test: MIC90 in vitro activity of sulopenem; assay type: cell-based
[31] = system: Haemophilus influenzae β-lactamase−; test: MIC90 in vitro activity of sulopenem; assay type: cell-based
[32] = system: Citrobacter diversus; test: MIC90 in vitro activity of sulopenem; assay type: cell-based; settings: Citrobacter koseri
[33] = system: Haemophilus influenzae β-lactamase+; test: MIC90 in vitro activity of sulopenem; assay type: cell-based
[34] = system: Morganella morganii; test: MIC90 in vitro activity of sulopenem; assay type: cell-based
[35] = system: Legionella pneumophila; test: microbe, parasite or virus in culture; assay type: cell-based
[36] = system: Salmonella/Shigella; test: MIC90 in vitro activity of sulopenem; assay type: cell-based
Experimental: (§1) The in vitro activity of sulopenem (the parent acid (5R,6S)-6-[(1R)-1-hydroxyethyl]-7-oxo-3-[[(1R3S)-tetrahydro-1-oxido-3thienyl]thio]4-thia-1-azabicyclo[3.2.0]hept-2-ene-2-carboxylic acid) was evaluated against pathogens involved in community and hospital infections, as summarized in Table 1. .

[37] = system: Klebsiella pneumoniae; test: MIC90 in vitro activity of sulopenem; assay type: cell-based
Experimental: as §1

[38] = system: Klebsiella oxytoca; test: MIC90 in vitro activity of sulopenem; assay type: cell-based
Experimental: as §1

[39] = system: Listeria monocytogenes; test: MIC90 in vitro activity of sulopenem; assay type: cell-based
Experimental: as §1

[40] = system: Streptococcus agalactiae (Group B); test: MIC90 in vitro activity of sulopenem; assay type: cell-based
Experimental: as §1

[41] = system: Prevotella spp; test: MIC90 in vitro activity of sulopenem; assay type: cell-based
Experimental: as §1

[42] = system: Staphylococcus aureus oxacillin-S; test: MIC90 in vitro activity of sulopenem; assay type: cell-based
Experimental: as §1

[43] = system: Neisseria meningitides; test: MIC90 in vitro activity of sulopenem; assay type: cell-based

SMILES: CCC(CC)C(=O)OCOC(=O)C1=C(S[C@H]2CC[S@@+]([O-])C2)S[C@@H]2[C@@H]([C@@H](C)O)C(=O)N12 [Compound 1, (2-Ethyl-1-oxobutoxy)methyl (5R,6S)-6-[(1R)-1-hydroxyethyl]-7-oxo-3-[[(1R,3S)-tetrahydro-1-oxido-3-thienyl]thio]-4-thia-1-azabicyclo[3.2.0]hept-2-ene-2-carboxylate]
- Km [1]: 91 µM
- PPE half-life (in words) [2]: relatively long PPE half-life
- half-life at 50 µM ([3]; pH 7.4, ku-zyme Lot 1): 11.7 ± 3.8 min
- half-life at 50 µM ([3]; pH 7.4, ku-zyme lot 2): 17.9 min
- conversion to sulopenem (in words) [4]: fully converted to sulopenem
- PD50 [5]: 88.6 mg/kg and 63.4 mg/kg
- solubility [6]: 1210 µg/mL (≈ 2530 µM)
- PD50 [7]: 16.4 mg/kg and 12.5 mg/kg and 9.5 mg/kg
- PD50 [8]: 12.5 mg/kg and 6.3 mg/kg
- ED50 [9]: 4.5 mg/kg
- ED50 ([9]; Haemophilus influenzae, in Meriones unguiculatus, po): 8.7 mg/kg
- intrinsic clearance in human intestinal juice (in words): relatively low intrinsic clearance
- HIJ Clint (avg) (human, pH 7.4): 0.07 mL/min

SMILES: C[C@@H](O)[C@H]1C(=O)N2C(C(=O)O)=C(S[C@H]3CC[S@@+]([O-])C3)S[C@H]12 [Sulopenem, (5R,6S)-6-[(1R)-1-hydroxyethyl]-7-oxo-3-[[(1R,3S)-tetrahydro-1-oxido-3-thienyl]thio]-4-thia-1-azabicyclo[3,2.0]hept-2-ene-2-carboxylic acid]
- MIC90 [10]: 1 µg/mL (≈ 2.86 µM)
- MIC90 [11]: 1 µg/mL (≈ 2.86 µM)
- MIC90 [12]: 0.125 µg/mL (≈ 0.358 µM)
- MIC90 [13]: 0.06 µg/mL (≈ 0.172 µM)
- MIC90 [14]: 0.06 µg/mL (≈ 0.172 µM)
- MIC90 [15]: 0.5 µg/mL (≈ 1.43 µM)
- MIC90 [16]: 0.5 µg/mL (≈ 1.43 µM)
- MIC90 [17]: 0.25 µg/mL (≈ 0.715 µM)
- MIC90 [18]: 0.03 µg/mL (≈ 0.0858 µM)
- MIC90 [19]: 1 µg/mL (≈ 2.86 µM)
- oral bioavailability (in words) [20]: not appreciably orally bioavailable
- MIC90 [21]: 0.5 µg/mL (≈ 1.43 µM)
- MIC90 [22]: 0.06 µg/mL (≈ 0.172 µM)
- MIC90 [23]: 0.03 µg/mL (≈ 0.0858 µM)
- MIC90 [24]: 0.03 µg/mL (≈ 0.0858 µM)
- MIC90 [25]: 0.25 µg/mL (≈ 0.715 µM)
- MIC90 [26]: 0.5 µg/mL (≈ 1.43 µM)
- MIC90 [27]: 0.25 µg/mL (≈ 0.715 µM)
- MIC90 [28]: 0.5 µg/mL (≈ 1.43 µM)
- MIC90 [29]: 2 µg/mL (≈ 5.72 µM)
- MIC90 [30]: 0.25 µg/mL (≈ 0.715 µM)
- MIC90 [31]: 0.25 µg/mL (≈ 0.715 µM)
- MIC90 [32]: 0.06 µg/mL (≈ 0.172 µM)
- MIC90 [33]: 0.5 µg/mL (≈ 1.43 µM)
- MIC90 [34]: 2 µg/mL (≈ 5.72 µM)
- MIC90 [35]: 0.06 µg/mL (≈ 0.172 µM)
- MIC90 [36]: 0.125 µg/mL (≈ 0.358 µM)
- MIC90 [37]: 0.125 µg/mL (≈ 0.358 µM)
- MIC90 [38]: 0.125 µg/mL (≈ 0.358 µM)
- MIC90 [39]: 0.125 µg/mL (≈ 0.358 µM)
- MIC90 [40]: 0.125 µg/mL (≈ 0.358 µM)
- MIC90 [41]: 0.125 µg/mL (≈ 0.358 µM)
- MIC90 [42]: 0.125 µg/mL (≈ 0.358 µM)
- MIC90 [43]: 0.06 µg/mL (≈ 0.172 µM)

— patent publication US7795244B2, “Penem prodrugs” (priority 2006, dated 2010)
